Measurements: patent US5436243A, “Aminoanthraquinone derivatives to combat multidrug resistance” (priority 1993, dated 1995)
Entries after “also recorded” stand apart in the source; their conditions may differ.

How the values were obtained:
PKC = assay: Micellar PKC screening assay; type: biochemical
From the text: The N-substituted diaminoanthraquinone, 1b, (1,4-bis-[[3'-(diethylamino)propyl]amino]anthraquinone), was identified as a PKC inhibitor in the micellar PKC screening assay and in platelets. […] Spectrophotometric analysis of 1b and lc indicated they were excellent chromophores with absorbance maxima at 648 and 600 nm in chloroform, respectively, and extinction coefficients of approximately 20,000. At these wavelengths, there was minimal absorbance by cellular components contained in the chloroform phase. These properties of 1b and 1c were utilized to determine the time course of accumulation of these compounds in MDR MCF7 Adr 10 cells.
The activities of 1a, 1b, 1c and 1d and mitoxantrone, an anthraquinone antineoplastic drug, were evaluated in vinblastine drug accumulation assays performed by the following method. […] Mitoxantrone was identified as a PKC inhibitor in miceliar PKC assays. Compound 1d (1,4-bis-[[2-(4-morpholino)ethyl]amino]anthraquinone) was only evaluated in cellular studies.

calmodulin kinase = assay: Calmodulin kinase inhibition; type: biochemical
From the text: One possible explanation for stimulation of phosphorylation of P-glycoprotein and MARCKS is that 1c may activate PKC or other cellular kinases by signal transduction pathways that have not yet been identified to phosphorylate these proteins. An alternative explanation for stimulation of phosphorylation of P-glycoprotein and MARCKS is that 1c inhibits protein phosphatases.

MCF7 Adr 10 [1] = assay: Tumor cell clonogenic assay, MCF7 ADR 10; type: cell-based, human
Protocol: The tumor cell clonogenic assays measure clonal proliferation of tumor cells. In this assay, 300-500 cells are plated in 10 cm^2 wells, allowed to adhere overnight, and are treated the following day. Tumor cell colonies were counted after 10-12 days of culture. The times of exposure in these experiments are similar; however, the concentrations of FCS are 20% in the CFU-GM assay and 10% in the tumor cell clonogenic assays. The IC50's are calculated as described above for the MTT proliferation assays.

[2] = target: P-glycoprotein in MCF7 Adr 10 membrane vesicles (Homo sapiens, UniProt P08183); assay: biochemical; conditions: read-out: decrease of specific binding of [3H] VLB
[3] = tested on: UOK-39 human renal cell line; assay: Vinblastine accumulation assay, UOK-39; type: cell-based; conditions: 10 μM, 10 nM [3H] vinblastine
Protocol: These cell lines are models of intrinsic resistance.
[^3 H] vinblastine was added to a final concentration of 10 nM and the cells were incubated for 2.5 hours. At this time, the cells were washed 3 times in ice cold PBS and lysed in buffer containing 0.1% Triton X-100.

mice = assay: Preliminary animal toxicity studies; type: in vivo; conditions: 400 mg/kg
P-glycoprotein = assay: Phosphorylation of P-glycoprotein in intact MCF7 Adr 10 cells; type: cell-based, human; conditions: MCF7 Adr 10, representative time course experiment, FIG. 12
From the text: The effects of compound 1c on phosphorylation of the P-glycoprotein and the MARCKS protein (myristoylated alanine-rich C kinase substrate) was studied in intact cells labeled with [^32 P] orthophosphate. The MARCKS protein (also known as the 80 to 87 kD protein) is observed to be rapidly phosphorylated subsequent to PKC activation by phorbol esters, cell permeant diacylglycerols, growth factor and hormonal stimulation in a variety of cell types from several species. […] In these experiments, phosphorylation of MARCKS was used as a marker of cellular PKC activity. The effects of 1c on phosphorylation states of the P-glycoprotein and MARCKS protein were studied to test the possibility that this compound may be inhibiting PKC in cells; due to metabolism to an active PKC inhibitor or by achieving inhibitory concentrations in the microenvironment of the P-glycoprotein.
METHOD: A monoclonal antibody to the P-glycoprotein, C219, was used to immunoprecipitate the P-glycoprotein and a polyclonal rabbit antibody was used to immunoprecipitate the MARCKS protein from extracts of cells labeled with [^32 P]. MARCKS was immunoprecipitated after preclearing the aliquot with normal rabbit IgG. MCF7 Adr 10 cells were labeled with [^32 P] orthophosphate for two hours. […] P-glycoprotein and MARCKS were immunoprecipitated from aliquots of the same sample containing equivalent radioactivity.

MCF7 Adr 10 [4] = assay: 72 hour MTT proliferation assay, reversal of drug resistance in MCF7 Adr 10; type: cell-based, human
Protocol: In 72 hour MTT proliferation assays using the following method, compounds 1b, 1c and 1d were assessed for inhibition of Vinca alkaloid and anthracycline drug resistance in MDR MCF7. Additionally, compounds 1b and 1c were assessed for potentiation of sensitivity to Vinca alkaloid and anthracycline drugs in the parental MCF7 WT cell line.
METHOD: 5000 cells per well were plated in 100 μl of IMDM containing 10% FCS and allowed to adhere overnight. The following day the cells were treated with N-substituted 1,4-diaminoanthraquinones and exposed to graded concentrations of antineoplastic agents. 50 μl of IMDM 10% FCS containing either vehicle or N-substituted 1,4-diaminoanthraquinones at 3 times the final tested concentration was added to cells at timed intervals. The plates were incubated for 2 hours at 37° C. to allow maximal cellular accumulation of N-substituted 1,4-diaminoanthraquinones. 40 μl aliquots of IMDM 10% FCS containing either vehicle or graded concentrations of antineoplastic drugs at 5 times the final concentration were added to treatment groups. Following this addition, 10 μl of IMDM 10% FCS containing either vehicle or N-substituted 1,4-diaminoanthraquinone at 5 times the final concentration was added to each group of wells. The cells were incubated for 72 hours after treatment. At this time the viable cells in each treatment group were estimated in a colorimetric assay by adding MTT and incubating the cells at 37° C. for 3-4 hours. The media in each well was aspirated and MTT formazan was solubilized in isopropyl alcohol acidified with 0.1 N HCl. The absorbance of the solubilized formazan was quantitated using a plate reader spectrophotometer. […] The concentrations of antineoplastic drugs which inhibited proliferation by 50% (IC50's) were estimated by calculating a percentage from the ratio: antineoplastic drug treated groups/control group absorbance and plotting the dose response curve on semilog paper. The IC50 was estimated from this curve. To assess the effects of inhibition of resistance by N-substituted 1,4-diaminoanthraquinones, the percentages were calculated relative to cell groups treated with resistance modifier alone and IC50's calculated as above. A reversal factor was calculated by dividing the IC50 to the antineoplastic drug alone (Control group) by the IC50 to antineoplastic drug in cells treated with resistance modifier.

Chain of P-glycoprotein in MCF7 Adr 10 membrane vesicles (P08183 whole entry): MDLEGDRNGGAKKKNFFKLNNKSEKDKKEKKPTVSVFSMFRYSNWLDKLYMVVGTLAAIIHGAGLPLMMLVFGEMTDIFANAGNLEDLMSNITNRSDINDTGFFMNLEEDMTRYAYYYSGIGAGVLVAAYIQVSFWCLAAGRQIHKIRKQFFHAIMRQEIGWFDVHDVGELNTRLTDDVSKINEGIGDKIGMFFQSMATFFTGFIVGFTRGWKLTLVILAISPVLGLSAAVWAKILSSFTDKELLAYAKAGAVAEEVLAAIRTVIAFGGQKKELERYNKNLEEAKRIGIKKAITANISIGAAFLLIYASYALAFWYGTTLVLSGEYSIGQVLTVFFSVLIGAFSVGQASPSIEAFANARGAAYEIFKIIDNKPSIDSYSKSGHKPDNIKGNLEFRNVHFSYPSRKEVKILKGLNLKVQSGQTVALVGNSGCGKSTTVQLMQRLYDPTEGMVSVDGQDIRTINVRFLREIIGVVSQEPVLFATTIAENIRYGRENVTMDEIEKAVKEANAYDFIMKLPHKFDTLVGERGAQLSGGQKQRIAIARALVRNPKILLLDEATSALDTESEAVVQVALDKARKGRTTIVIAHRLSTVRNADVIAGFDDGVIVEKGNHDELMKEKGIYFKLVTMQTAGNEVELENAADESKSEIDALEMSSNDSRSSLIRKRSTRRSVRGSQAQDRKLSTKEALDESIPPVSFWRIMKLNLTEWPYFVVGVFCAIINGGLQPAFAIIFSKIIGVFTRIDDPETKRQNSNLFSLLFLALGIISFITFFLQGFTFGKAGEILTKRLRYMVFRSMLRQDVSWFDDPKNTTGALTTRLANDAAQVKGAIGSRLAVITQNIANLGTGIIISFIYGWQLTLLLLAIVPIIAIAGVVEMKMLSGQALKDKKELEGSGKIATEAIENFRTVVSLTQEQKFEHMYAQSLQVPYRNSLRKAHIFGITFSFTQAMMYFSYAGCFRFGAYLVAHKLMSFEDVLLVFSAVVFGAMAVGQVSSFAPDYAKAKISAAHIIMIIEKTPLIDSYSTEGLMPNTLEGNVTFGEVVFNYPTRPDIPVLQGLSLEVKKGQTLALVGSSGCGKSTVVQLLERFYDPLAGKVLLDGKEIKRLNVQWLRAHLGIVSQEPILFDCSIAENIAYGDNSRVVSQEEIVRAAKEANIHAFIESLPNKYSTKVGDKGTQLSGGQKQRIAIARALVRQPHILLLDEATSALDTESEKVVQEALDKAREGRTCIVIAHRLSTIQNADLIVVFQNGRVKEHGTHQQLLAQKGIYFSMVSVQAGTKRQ

SMILES: O=C1c2ccccc2C(=O)c2c(NCCCN3CCOCC3)ccc(NCCCN3CCOCC3)c21 [Compound 1c, 1,4-bis-[[3'(4-morpholino)propyl]amino]anthraquinone]
- PKC activity in micellar PKC screening assay (PKC): marginal PKC inhibitory activity
- calmodulin kinase inhibitory activity (calmodulin kinase): did not inhibit
- IC50 (MCF7 Adr 10 [1]; Homo sapiens, NCI/ADR-RES, tumor cell clonogenic assay, 10-12 days, read-out: Continuous Exposure IC50, MCF7 ADR 10): 400 nM
- antiproliferative effect relative to human CFU-GM (MCF7 Adr 10 [1]; MDR cancer cells, clonal proliferation assays): ~20 times
- relative sensitivity of MCF7 WT and MDR MCF7 to cytotoxicity (MCF7 Adr 10 [1]; clonogenic assays): MDR MCF7 are twice as sensitive to 1c cytotoxicity as MCF7 WT
- inhibition at 5 µM [2]: 29%
- inhibition at 10 µM [2]: 42%
- inhibition at 25 µM [2]: 69%
- vinblastine accumulation relative to verapamil [3]: comparable or superior to verapamil activity
- toxicity in mice (mice): not toxic at 400 mg/kg in mice
- increase of P-glycoprotein phosphorylation (P-glycoprotein): 6.6 fold
- inhibition of Vinca alkaloid drug resistance (MCF7 Adr 10 [4]): inhibit Vinca alkaloid drug resistance at nanomolar concentrations
- inhibition of drug resistance / MDR phenotype (MCF7 Adr 10 [4]; MCF7 Adr 10): most potent inhibitor of the MDR phenotype in the MCF7 Adr 10 cell line; also recorded: more potent MDR phenotype inhibitor than 1d
- Reversal Factor (VCR) (MCF7 Adr 10 [4]; [1c] 0.1 μM): 2.3
- Reversal Factor (VLB) (MCF7 Adr 10 [4]; [1c] 0.1 μM): 2.2
- Reversal Factor (VCR) (MCF7 Adr 10 [4]; [1c] 0.25 μM): 5.0
- Reversal Factor (VLB) (MCF7 Adr 10 [4]; [1c] 0.25 μM): 3.5
- Reversal Factor (ADR) (MCF7 Adr 10 [4]; [1c] 0.5 μM): 2.0
- Reversal Factor (DNR) (MCF7 Adr 10 [4]; [1c] 0.5 μM): 1.9
- Reversal Factor (VCR) (MCF7 Adr 10 [4]; [1c] 0.5 μM): 10.4
- Reversal Factor (VLB) (MCF7 Adr 10 [4]; [1c] 0.5 μM): 8.5
- Reversal Factor (ADR) (MCF7 Adr 10 [4]; [1c] 1.0 μM): 3.3
- Reversal Factor (DNR) (MCF7 Adr 10 [4]; [1c] 1.0 μM): 3.2
- Reversal Factor (VCR) (MCF7 Adr 10 [4]; [1c] 1.0 μM): 24.8
- Reversal Factor (VLB) (MCF7 Adr 10 [4]; [1c] 1.0 μM): 9.2
- average cell growth in the presence of 1c alone, of the vehicle control (MCF7 Adr 10 [4]; test concentrations, n=14, 4320 min): greater than 86%
